IC50 data for one molecule are collected here from patent publication US7323447B2, “Hepatitis C virus inhibitors” (Bristol-Myers Squibb Company, priority 2005, dated 2008).

Assay [1] addresses T1, HCV NS3/4A protease complex (BMS strain) (UniProt P27958).
T1 construct: other: HCV NS3/4A enzyme assay; said of H77 and J4L6S; fused on or other part: Three-lysine solubilising tail at the NS4A C-terminus and a His tag from pET21b (Ni-NTA purification), for the H77 and J4L6S constructs
As to the kind of experiment: FRET peptide assay to monitor HCV NS3/4A proteolytic activity, BMS strain. The settings on record: read-out: IC50 Range; HCV NS3/4A enzyme assay; Table 1. It counts as biochemical, Hepatitis C virus (genotype 1a). The gist of the method:
(§1)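 Recombinant NS3/4A (BMS strain, genotype 1a, >90% pure) cleaving FRET depsipeptide RET S1 (EDANS/DABCYL) at 2 μM; enzyme 2-3 nM (300 pM with 50 μg/ml BSA for sensitive runs). Buffer 50 mM HEPES pH 7.5, 0.15 M NaCl, 0.1% Triton, 15% glycerol, 10 mM βME; fluorescence followed in real time.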

Assay [2] has as its target T2, HCV NS3/4A protease complex (BMS strain) (UniProt P27958, species not given/STRAIN_BMS).
T2 construct: other: BMS strain; said of H77 and J4L6S; These are given only for the H77 and J4L6S constructs
The description is as above. Type of assay: biochemical, Hepatitis C virus (genotype 1a). The settings on record: read-out: IC50 against the NS3/4A BMS strain in the enzyme assay; BMS strain. The gist of the method: as §1

T2 sequence (P27958 1027-1657, change not shown, one chain of several): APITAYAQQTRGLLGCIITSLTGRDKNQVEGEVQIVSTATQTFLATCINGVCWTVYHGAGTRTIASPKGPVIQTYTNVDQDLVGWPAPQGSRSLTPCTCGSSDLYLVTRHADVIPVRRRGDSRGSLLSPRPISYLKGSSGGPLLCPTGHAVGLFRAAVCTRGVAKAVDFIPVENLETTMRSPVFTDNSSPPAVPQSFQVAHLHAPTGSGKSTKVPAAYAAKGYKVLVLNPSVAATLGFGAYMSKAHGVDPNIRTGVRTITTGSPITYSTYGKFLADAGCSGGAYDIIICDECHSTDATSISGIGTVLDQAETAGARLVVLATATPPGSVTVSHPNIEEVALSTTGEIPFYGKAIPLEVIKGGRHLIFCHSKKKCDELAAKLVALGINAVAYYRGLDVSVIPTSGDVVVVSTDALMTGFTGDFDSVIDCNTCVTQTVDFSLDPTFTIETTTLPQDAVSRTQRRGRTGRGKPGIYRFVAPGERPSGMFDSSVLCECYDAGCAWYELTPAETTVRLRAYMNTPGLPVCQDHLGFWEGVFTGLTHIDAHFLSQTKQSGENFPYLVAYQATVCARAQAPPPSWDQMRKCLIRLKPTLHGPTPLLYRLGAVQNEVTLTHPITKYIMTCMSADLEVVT
T1 sequence (P27958 1027-1657, one chain of several): as the sequence (P27958 1027-1657, change not shown, one chain of several) above

As to `C=C[C@@H]1C[C@]1(NC(=O)[C@@H]1C[C@@H](OC(=O)N2Cc3cccc(F)c3C2)CN1C(=O)[C@@H](OC(=O)NC(C)(C)C)C(C)(C)C)C(=O)NS(=O)(=O)C1CC1` [Example 56Compound 56], the results for the IC50 in assay [1] and in assay [2] were under 100 nM and 99 nM, respectively.
